Data on one compound can be found in ChEMBL document CHEMBL1136394, “Synthesis and in vivo imaging properties of [11C]befloxatone: a novel highly potent positron emission tomography ligand for mono-amine oxidase-A” (Bioorg Med Chem Lett, 2003).

Data set [1] concerns the target T1, Amine oxidase [flavin-containing] A (Homo sapiens, UniProt P21397).
T1 sequence (P21397 whole entry): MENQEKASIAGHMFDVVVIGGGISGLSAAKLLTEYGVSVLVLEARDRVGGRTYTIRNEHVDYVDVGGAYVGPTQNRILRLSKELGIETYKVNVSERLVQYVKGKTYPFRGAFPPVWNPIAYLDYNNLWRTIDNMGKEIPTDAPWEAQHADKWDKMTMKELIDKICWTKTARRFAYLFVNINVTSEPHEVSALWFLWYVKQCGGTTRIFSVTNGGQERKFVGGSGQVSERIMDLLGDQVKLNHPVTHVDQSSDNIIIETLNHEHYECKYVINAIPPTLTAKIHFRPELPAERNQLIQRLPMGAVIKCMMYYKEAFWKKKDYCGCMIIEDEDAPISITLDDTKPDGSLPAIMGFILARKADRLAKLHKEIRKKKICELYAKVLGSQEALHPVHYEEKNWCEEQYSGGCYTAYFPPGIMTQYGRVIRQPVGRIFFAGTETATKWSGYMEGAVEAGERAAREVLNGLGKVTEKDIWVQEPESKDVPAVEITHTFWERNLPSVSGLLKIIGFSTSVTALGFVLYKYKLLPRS
As to the kind of experiment: Compound was tested for inhibition of MAOA in human brain, heart, liver and duodenum homogenates; Range is 1.9-3.6 nM. The data set is classed as tissue-based.

For data set [2], the system named is Mus musculus. As to the kind of experiment: Oral effective dose against L-5-hydroxytryptophan induced generalized tremors in mice; Range is 0.1-0.2 mg/Kg. It is filed as functional.
In data set [3] the test system is Mus musculus. In words: Intravenous effective dose against L-5-hydroxytryptophan induced generalized tremors in mice. It is filed as functional.
The species named for data set [4] is Mus musculus. In words: Oral effective dose against phenylethylamine-induced stereotypy in mice. It is filed as functional.
In data set [5] the target is T2, Amine oxidase [flavin-containing] A (Rattus norvegicus, UniProt P21396).
T2 sequence (P21396 whole entry): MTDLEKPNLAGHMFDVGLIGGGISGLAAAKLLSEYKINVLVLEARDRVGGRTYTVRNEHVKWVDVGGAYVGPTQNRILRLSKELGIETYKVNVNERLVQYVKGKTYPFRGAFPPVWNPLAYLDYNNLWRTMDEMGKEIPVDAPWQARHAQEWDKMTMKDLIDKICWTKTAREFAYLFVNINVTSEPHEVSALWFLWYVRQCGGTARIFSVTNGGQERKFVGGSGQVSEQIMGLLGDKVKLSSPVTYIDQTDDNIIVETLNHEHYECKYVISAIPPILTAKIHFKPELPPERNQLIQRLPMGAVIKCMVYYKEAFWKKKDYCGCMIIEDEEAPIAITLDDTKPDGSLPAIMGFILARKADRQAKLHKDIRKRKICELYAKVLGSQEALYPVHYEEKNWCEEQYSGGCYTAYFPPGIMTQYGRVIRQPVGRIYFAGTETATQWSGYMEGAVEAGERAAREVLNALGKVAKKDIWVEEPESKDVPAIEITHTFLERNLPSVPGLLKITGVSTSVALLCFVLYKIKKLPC
In words: Compound was tested for inhibition of MAOA in rat brain, heart, liver and duodenum homogenates; Range is 1.9-3.6 nM. It is filed as tissue-based.

Data set [6] is described as follows: Half life was determined. The note with it: rat. The data set is classed as ADME.

On to `COC[C@H]1CN(c2ccc(OCC[C@@H](O)C(F)(F)F)cc2)C(=O)O1` [BEFLOXATONE], for which the Ri in data set [1] and in data set [5] was 1.9 nM throughout. Also, the 50% effective dose (ED50) in data set [2] was 0.2 mg/kg; in data set [3], 0.07 mg/kg; in data set [4], 58 mg/kg. This compound displayed a half-life in data set [6] of 20.4 min.
